Test results as given in patent publication US12448394B2, “Heterocyclic pyrazole derivatives as type III receptor tyrosine kinase inhibitors” (DEVELOPMENT CENTER FOR BIOTECHNOLOGY, priority 2019, dated 2025).
Each block holds one compound with its values, some of them ahead of it.

Experiments:
FLT3-D835Y mutant kinase = target: T1, FLT3-D835Y mutant kinase (Homo sapiens, UniProt P36888, D835Y); assay: FLT3-D835Y mutant kinase assay (AlphaScreen); type: biochemical; details: read-out: Ranking of IC50 values, FLT3-D835Y
T1 construct: purchased SignalChem
T1 sequence (P36888 27-993 D835Y): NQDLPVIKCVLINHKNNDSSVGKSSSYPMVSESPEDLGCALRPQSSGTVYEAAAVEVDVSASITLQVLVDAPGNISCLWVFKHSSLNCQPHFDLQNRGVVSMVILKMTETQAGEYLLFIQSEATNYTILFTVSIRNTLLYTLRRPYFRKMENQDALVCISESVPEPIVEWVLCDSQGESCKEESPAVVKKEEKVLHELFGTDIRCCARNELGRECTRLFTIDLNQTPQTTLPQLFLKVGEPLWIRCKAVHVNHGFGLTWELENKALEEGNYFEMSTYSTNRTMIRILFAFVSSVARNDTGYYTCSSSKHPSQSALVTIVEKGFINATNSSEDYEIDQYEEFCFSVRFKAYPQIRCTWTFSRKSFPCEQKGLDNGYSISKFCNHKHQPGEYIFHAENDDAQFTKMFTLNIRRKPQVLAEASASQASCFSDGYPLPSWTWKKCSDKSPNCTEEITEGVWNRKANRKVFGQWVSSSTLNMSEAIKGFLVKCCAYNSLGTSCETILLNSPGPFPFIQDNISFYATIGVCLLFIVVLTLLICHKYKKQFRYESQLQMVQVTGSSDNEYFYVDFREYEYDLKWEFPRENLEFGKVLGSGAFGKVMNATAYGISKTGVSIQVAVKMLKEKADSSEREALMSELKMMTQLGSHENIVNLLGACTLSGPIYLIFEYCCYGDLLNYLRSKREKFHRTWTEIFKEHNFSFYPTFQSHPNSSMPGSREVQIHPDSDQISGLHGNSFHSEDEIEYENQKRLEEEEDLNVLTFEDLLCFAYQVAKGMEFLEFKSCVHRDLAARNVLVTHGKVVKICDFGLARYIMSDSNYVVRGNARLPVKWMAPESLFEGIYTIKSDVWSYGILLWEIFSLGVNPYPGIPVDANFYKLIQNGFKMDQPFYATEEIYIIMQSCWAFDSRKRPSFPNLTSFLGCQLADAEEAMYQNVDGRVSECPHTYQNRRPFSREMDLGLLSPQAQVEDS
Summary of the method: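 Recombinant FLT3-D835Y (1 ng) phosphorylated biotin-poly(Glu4:Tyr1) at 10 μM ATP, pH 7.0 MOPS buffer with 10 mM MgCl2, for 30 min at 30 °C, stopped with EDTA. Product was read by AlphaScreen. IC50 came from serial dilutions run in duplicate.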

PDGFRα kinase = target: T2, PDGFRα kinase (Homo sapiens, UniProt P16234); assay: PDGFRα kinase assay (AlphaScreen); type: biochemical; details: read-out: Ranking of IC50 values, PDGFRα
T2 construct: purchased SignalChem
T2 sequence (P16234 24-1089): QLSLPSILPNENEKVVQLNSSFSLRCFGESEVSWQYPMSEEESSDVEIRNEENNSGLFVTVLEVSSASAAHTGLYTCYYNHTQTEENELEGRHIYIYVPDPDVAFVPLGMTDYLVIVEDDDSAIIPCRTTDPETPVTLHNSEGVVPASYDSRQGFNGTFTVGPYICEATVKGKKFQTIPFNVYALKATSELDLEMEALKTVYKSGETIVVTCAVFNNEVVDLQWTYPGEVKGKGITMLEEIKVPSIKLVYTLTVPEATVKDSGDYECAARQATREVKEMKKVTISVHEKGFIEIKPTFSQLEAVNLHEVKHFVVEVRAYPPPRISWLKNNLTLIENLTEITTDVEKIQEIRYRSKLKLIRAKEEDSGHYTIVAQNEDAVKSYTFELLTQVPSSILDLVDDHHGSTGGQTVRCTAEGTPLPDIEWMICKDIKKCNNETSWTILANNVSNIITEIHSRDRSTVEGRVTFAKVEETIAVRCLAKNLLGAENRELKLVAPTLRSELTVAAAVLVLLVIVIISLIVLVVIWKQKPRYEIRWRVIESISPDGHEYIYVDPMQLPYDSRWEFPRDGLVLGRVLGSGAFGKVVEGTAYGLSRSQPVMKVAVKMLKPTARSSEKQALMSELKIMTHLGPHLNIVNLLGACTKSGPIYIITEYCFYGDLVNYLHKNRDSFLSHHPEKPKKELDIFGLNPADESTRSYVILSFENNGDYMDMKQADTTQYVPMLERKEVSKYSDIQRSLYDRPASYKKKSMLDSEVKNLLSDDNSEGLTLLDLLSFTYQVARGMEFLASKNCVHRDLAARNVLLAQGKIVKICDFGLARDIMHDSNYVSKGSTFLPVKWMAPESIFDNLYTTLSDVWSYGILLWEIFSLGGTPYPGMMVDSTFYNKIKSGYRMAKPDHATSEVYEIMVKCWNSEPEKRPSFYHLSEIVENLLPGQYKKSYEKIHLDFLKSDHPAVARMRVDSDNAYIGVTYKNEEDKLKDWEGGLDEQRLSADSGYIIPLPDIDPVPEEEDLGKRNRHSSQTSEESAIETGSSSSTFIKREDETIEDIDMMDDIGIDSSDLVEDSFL
Description: Inhibition of PDGFRα kinase activity by a test compound disclosed herein was estimated by AlphaScreen (PerkinElmer). Standard assay conditions were 1.5 ng of recombinant PDGFRα kinase (SignalChem) with 6 ng Biotin-conjugated Poly-(Glu 4: Tyr 1) (Cisbio) in the assay buffer (10 μM ATP, 10 mM MOPs, pH 7.0, 0.21 mM EDTA, 0.5% glycerol, 1 mg/mL BSA, 0.01% 2-mercaptoethanol, 0.001% Brij35, 10 mM MgCl2) in a final volume of 25 μL. Reactions were incubated at 30° C. for 30 min and stopped by adding […] of 50 mM EDTA. Analysis of resulting product using an AlphaScreen kit and counted with Enspire Alpha (PerkinElmer). […] The IC50 values of inhibitors were determined after carrying out assays with each compound at serially diluted concentrations in duplication. The results were analyzed using linear regression software (GraphPad Prism 5; GraphPad Software Inc.)

[1] = tested on: MV4-11 human acute myeloid leukemia cell with FLT3-ITD mutation; assay: MV4-11 cell proliferation assay (CellTiter 96); type: cell-based; details: Homo sapiens, MV4-11, 72 h, MV4-11 cells, 72 hours treatment, CellTiter96; read-out: anti-proliferation activity MV4-11 (FLT3-ITD), IC50 ranking
Description: Inhibitions of cell growths by compounds were measured using CellTiter™-96 assay. The cytotoxicities of compounds of the invention were evaluated in cell line panels with different signaling pathway dependencies, including MV4-11 human acute myeloid leukemia cell with FLT3-ITD mutation, Molm-14 human acute myeloid leukemia cell with FLT3-ITD mutation, THP-1 human acute monocytic leukemia cell with NRAS G12D mutation, A375 melanoma cell with BRAF V600E mutation, and HCC827 NSCLC cell with EGFR exon 19 deletion mutation.
The compounds disclosed herein were tested in MV4-11 cell proliferation assay to determine their cellular potencies against FLT3 signal pathway dependent cell growths. MV4-11 cells are human acute myeloid leukemia (AML) cells harboring ligand-independent FLT3-ITD activating mutation, which renders the abnormal proliferation of AML cells FLT3 signaling pathway dependent. Inhibition of FLT3 kinase activity will result in reduced growths and/or cell deaths. MV4-11 cells (catalog #CRL-9591) were obtained from the American Type Culture Collection (ATCC, Manassas, VA). Briefly, cells were grown in IMDM medium supplemented with 10% heat inactivated fetal bovine serum and incubated at 37° C. in 5% CO2 atmosphere. Cells were allowed to expand until reaching saturation, at which point they were sub-cultured or harvested for assay use.
MV4-11, Molm-14, THP-1, A375, and HCC827 cells were seeded into 96-well plates at 6500, 25000, 5000, 2000 and 8000 cells/well, respectively, and incubated at 37° C., 5% CO2 overnight. Then, these seeded cells were treated with increasing concentrations of the test compounds and incubated for another 72 hours. At the end of the incubation, CellTiter96® AQueous One Solution Reagent (Promega, […]) was added and incubated for the additional 2˜4 hours. Cell viability was determined by measuring absorbance at 490 nm using EMax® microplate reader (Molecular Devices, San Jose, CA, USA).

Compound: C[C@@H]1CN(Cc2ccc(-c3cc4c(s3)Cc3c(-c5ccc6cn[nH]c6c5)n[nH]c3-4)cn2)C[C@H](C)O1 [Compound 16, (2R,6S)-4-((5-(3-(1H-indazol-6-yl)-1,4-dihydro-thieno[2′,3′:4,5]cyclopenta [1,2-c]pyrazol-6-yl)pyridin-2-yl)methyl)-2,6-dimethylmorpholine]
- IC50 (FLT3-D835Y mutant kinase): < 1 nM
- IC50 (PDGFRα kinase): 1 to 10 nM
- IC50 [1]: < 30 nM

Compound: C[C@@H]1CN(C(=O)c2ccc(-c3cc4c(s3)Cc3c(-c5ccc6cnn(C)c6c5)n[nH]c3-4)cc2)C[C@H](C)O1 [Compound 19, ((2S,6R)-2,6-dimethyl-morpholino)(4-(3-(1-methyl-1H-indazol-6-yl)-1,4-dihydrothieno[2′,3′:4,5]cyclopenta[1,2-c]pyrazol-6-yl)phenyl)methanone]
- IC50 (FLT3-D835Y mutant kinase): 1 to 10 nM
- IC50 (PDGFRα kinase): 1 to 10 nM
- IC50 [1]: < 30 nM

Compound: CN(C)S(=O)(=O)c1ccc(-c2cc3c(s2)Cc2c(-c4ccc5cnn(C)c5c4)n[nH]c2-3)cc1 [Compound 50, N,N-dimethyl-4-(3-(1-methyl-1H-indazol-6-yl)-1,4-dihydrothieno [2′,3′:4,5]cyclopenta [1,2-c]pyrazol-6-yl) benzenesulfonamide]
- IC50 (FLT3-D835Y mutant kinase): < 1 nM
- IC50 (PDGFRα kinase): 10 to 30 nM
- IC50 [1]: < 30 nM

Compound: Cn1ncc2ccc(-c3n[nH]c4c3Cc3sc(-c5ccc(NC6CCOCC6)cc5)cc3-4)cc21 [Compound 72, N-(4-(3-(1-methyl-1H-indazol-6-yl)-1,4-dihydro-thieno[2′,3′:4,5]cyclopenta [1,2-c]pyrazol-6-yl)phenyl)tetrahydro-2H-pyran-4-amine]
- IC50 (FLT3-D835Y mutant kinase): 1 to 10 nM
- IC50 (PDGFRα kinase): 10 to 30 nM
- IC50 [1]: 30 to 100 nM

Compound: Cn1ncc2ccc(-c3n[nH]c4c3Cc3sc(C5CCNCC5)cc3-4)cc21 [Compound 96, 3-(1-methyl-1H-indazol-6-yl)-6-(piperidin-4-yl)-1,4-dihydrothieno [2′,3′:4,5]cyclopenta [1,2-c]pyrazole]
- IC50 (FLT3-D835Y mutant kinase): < 1 nM
- IC50 (PDGFRα kinase): 1 to 10 nM
- IC50 [1]: < 30 nM

Compound: Cn1ncc2ccc(-c3n[nH]c4c3Cc3sc(N5CCOCC5=O)cc3-4)cc21 [Compound 79, 4-(3-(1-methyl-1H-indazol-6-yl)-1,4-dihydro-thieno[2′,3′:4,5]cyclopenta [1,2-c]pyrazol-6-yl) morpholin-3-one]
- IC50 (FLT3-D835Y mutant kinase): < 1 nM
- IC50 (PDGFRα kinase): 1 to 10 nM
- IC50 [1]: < 30 nM

Compound: CC1C(=O)N(C)CCN1Cc1ccc(-c2cc3c(s2)Cc2c(-c4ccc5cnn(C)c5c4)n[nH]c2-3)cc1 (stereo not drawn) [Compound 65, 1,3-dimethyl-4-(4-(3-(1-methyl-1H-indazol-6-yl)-1,4-dihydrothieno [2′,3′:4,5]cyclopenta [1,2-c]pyrazol-6-yl)benzyl)piperazin-2-one]
- IC50 (FLT3-D835Y mutant kinase): < 1 nM
- IC50 (PDGFRα kinase): 1 to 10 nM
- IC50 [1]: < 30 nM

Compound: COC1CN(Cc2ccc(-c3cc4c(s3)Cc3c(-c5ccc6cnn(C)c6c5)n[nH]c3-4)cc2)C1 [Compound 105, 6-(4-((3-methoxyazeti-din-1-yl)methyl)phenyl)-3-(1-methyl-1H-indazol-6-yl)-1,4-dihydrothieno [2′,3′:4,5]cyclopenta [1,2-c]pyrazole]
- IC50 (FLT3-D835Y mutant kinase): < 1 nM
- IC50 (PDGFRα kinase): 1 to 10 nM
- IC50 [1]: < 30 nM

Compound: C[C@@H]1CN(Cc2ccc(-c3cc4c(s3)Cc3c(-c5ccc6cn[nH]c6c5)n[nH]c3-4)cc2)C[C@H](C)O1 [Compound 7, (2S,6R)-4-(4-(3-(1H-indazol-6-yl)-1,4-dihydrothieno[2′,3′:4,5]cyclopenta [1,2-c]pyrazol-6-yl)benzyl)-2,6-dimethylmorpholine]
- IC50 (FLT3-D835Y mutant kinase): 1 to 10 nM
- IC50 (PDGFRα kinase): 1 to 10 nM
- IC50 [1]: < 30 nM

Continued, values first:

- IC50 (FLT3-D835Y mutant kinase): < 1 nM
- IC50 (PDGFRα kinase): 10 to 30 nM
- IC50 [1]: 30 to 100 nM
Compound: Cn1ncc2ccc(-c3n[nH]c4c3Cc3sc(-c5ccc(CN6CCOCC6)cc5F)cc3-4)cc21 [Compound 32, 4-(3-fluoro-4-(3-(1-methyl-1H-indazol-6-yl)-1,4-dihydrothieno [2′,3′:4,5]cyclopenta [1,2-c]pyrazol-6-yl)benzyl)morpholine]

- IC50 (FLT3-D835Y mutant kinase): < 1 nM
- IC50 (PDGFRα kinase): 10 to 30 nM
- IC50 [1]: < 30 nM
Compound: Cn1ncc2ccc(-c3n[nH]c4c3Cc3sc(-c5csc(CN6CCOCC6)c5)cc3-4)cc21 [Compound 52, 4-((4-(3-(1-methyl-1H-indazol-6-yl)-1,4-dihydro-thieno[2′,3′:4,5]cyclopenta [1,2-c]pyrazol-6-yl)thiophen-2-yl)methyl) morpholine]

- IC50 (FLT3-D835Y mutant kinase): 1 to 10 nM
- IC50 (PDGFRα kinase): 30 to 100 nM
- IC50 [1]: 100 to 300 nM
Compound: Cn1ncc2ccc(-c3n[nH]c4c3Cc3sc(-c5ccc(CC6CCOCC6)cc5)cc3-4)cc21 [Compound 77, 3-(1-methyl-1H-indazol-6-yl)-6-(4-((tetrahydro-2H-pyran-4-yl)methyl)phenyl)-1,4-dihydrothieno [2′,3′:4,5]cyclopenta [1,2-c]pyrazole]

- IC50 (FLT3-D835Y mutant kinase): 1 to 10 nM
- IC50 (PDGFRα kinase): 1 to 10 nM
- IC50 [1]: < 30 nM
Compound: CC(c1ccc(-c2cc3c(s2)Cc2c(-c4ccc5cnn(C)c5c4)n[nH]c2-3)cc1)N1CCOCC1 (stereo not drawn) [Compound 20, 4-(1-(4-(3-(1-methyl-1H-indazol-6-yl)-1,4-dihydro-thieno[2′,3′:4,5]cyclopenta [1,2-c]pyrazol-6-yl)phenyl)ethyl)morpholine]

- IC50 (FLT3-D835Y mutant kinase): 1 to 10 nM
- IC50 (PDGFRα kinase): 1 to 10 nM
- IC50 [1]: < 30 nM
Compound: Cn1ncc2ccc(-c3n[nH]c4c3Cc3sc(-c5cc(C(=O)N6CCOCC6)ccn5)cc3-4)cc21 [Compound 56, (2-(3-(1-methyl-1H-indazol-6-yl)-1,4-dihydro-thieno[2′,3′:4,5]cyclopenta [1,2-c]pyrazol-6-yl)pyridin-4-yl)(morpholino) methanone]

- IC50 (FLT3-D835Y mutant kinase): < 1 nM
- IC50 (PDGFRα kinase): 10 to 30 nM
- IC50 [1]: < 30 nM
Compound: COc1cc(CN2CCOCC2)ccc1-c1cc2c(s1)Cc1c(-c3ccc4cnn(C)c4c3)n[nH]c1-2 [Compound 29, 4-(3-methoxy-4-(3-(1-methyl-1H-indazol-6-yl)-1,4-dihydrothieno [2′,3′:4,5]cyclopenta[1,2-c]pyrazol-6-yl)benzyl) morpholine]

- IC50 (FLT3-D835Y mutant kinase): < 1 nM
- IC50 (PDGFRα kinase): 1 to 10 nM
- IC50 [1]: < 30 nM
Compound: Cn1cc(-c2cc3c(s2)Cc2c(-c4ccc5cnn(C)c5c4)n[nH]c2-3)cc1C(=O)N1CCOCC1 [Compound 46, (1-methyl-4-(3-(1-methyl-1H-indazol-6-yl)-1,4-dihydrothieno[2′,3′:4,5]cyclopenta[1,2-c]pyrazol-6-yl)-1H-pyrrol-2-yl) (morpholino)methanone]
